Laboratory results: article doi:10.1101/2025.09.18.677102, “Genomic plasticity drives olfactory adaptation in a pest fly” (bioRxiv, 2025)

Target: T1, DsuzOr22a (Drosophila suzukii, UniProt A0AB39ZTG6)
T1 construct: gene LOC108019602; full-length cDNA in pJFRC81 (GFP removed), UAS line expressed in D. melanogaster ab3A empty neuron (Or22ab-Gal4); with Odorant receptor coreceptor (Drosophila melanogaster, endogenous to the host neuron)
T1 sequence (A0AB39ZTG6 1-397): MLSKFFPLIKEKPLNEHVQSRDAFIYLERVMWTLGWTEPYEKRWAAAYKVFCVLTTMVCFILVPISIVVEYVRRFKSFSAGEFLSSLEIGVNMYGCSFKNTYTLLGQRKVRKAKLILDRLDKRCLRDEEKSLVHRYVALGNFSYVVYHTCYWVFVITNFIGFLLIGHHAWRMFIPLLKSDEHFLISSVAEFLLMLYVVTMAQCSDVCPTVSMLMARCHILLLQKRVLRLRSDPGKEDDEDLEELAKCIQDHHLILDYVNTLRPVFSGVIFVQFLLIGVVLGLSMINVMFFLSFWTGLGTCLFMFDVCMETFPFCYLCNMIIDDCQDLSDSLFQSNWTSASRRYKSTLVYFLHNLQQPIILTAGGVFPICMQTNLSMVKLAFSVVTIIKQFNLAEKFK
T1 sequence (Q9VNB5 1-486 partner): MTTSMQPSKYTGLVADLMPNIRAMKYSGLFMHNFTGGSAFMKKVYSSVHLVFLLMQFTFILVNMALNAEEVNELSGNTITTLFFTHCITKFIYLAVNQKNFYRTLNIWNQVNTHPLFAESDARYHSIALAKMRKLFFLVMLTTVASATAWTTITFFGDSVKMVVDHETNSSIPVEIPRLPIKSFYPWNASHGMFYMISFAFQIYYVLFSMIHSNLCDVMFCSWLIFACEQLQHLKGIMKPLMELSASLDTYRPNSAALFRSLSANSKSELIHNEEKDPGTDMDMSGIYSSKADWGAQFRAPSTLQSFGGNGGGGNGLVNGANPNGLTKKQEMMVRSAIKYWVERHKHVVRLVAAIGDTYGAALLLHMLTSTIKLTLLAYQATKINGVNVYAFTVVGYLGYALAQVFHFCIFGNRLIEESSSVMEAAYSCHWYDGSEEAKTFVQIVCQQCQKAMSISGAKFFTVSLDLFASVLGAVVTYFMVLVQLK
Assay: single sensillum recording, empty neuron
Format: cell-based
Conditions: odorant 10^-4 dilution in hexane

Structure (SMILES) | responses (spikes/s) | responses (spikes/s) (also dilution series)
CCCCOC(C)=O [butyl acetate] | toward several ripening fruit esters such as isobutyl acetate, butyl acetate, and isoamyl acetate | 
CC(=O)OCCC(C)C [isoamyl acetate] | toward several ripening fruit esters such as isobutyl acetate, butyl acetate, and isoamyl acetate | 
CC(=O)OCC(C)C [isobutyl acetate] |  | Or22a, which has shifted its tuning toward several ripening fruit esters such as isobutyl acetate
